Results: publication PMC8708491 (Vaccines, 2021)
Where no end group is shown, it is not given here.

Assays:
CD4 T cells = settings: cited from earlier work
Excerpt: The induction of immunological tolerance through the action of dendritic cells is a newly introduced strategy for the treatment of MS. Peripheral blood mononuclear cells (PBMCs) were isolated from patients with relapsing-remitting (RR-MS) and age- and sex-matched healthy individuals (controls).

[1] = tested on: experimental autoimmune encephalomyelitis (EAE); settings: cited from earlier work
Excerpt: Several biological studies, including in vitro and in vivo assays, have been carried out to evaluate the effects of mannan–myelin peptide conjugates. […] In another study, mannan–MOG35–55 reversed experimental autoimmune encephalomyelitis, inducing a pe ...

[2] = Polarity by reversed-phase HPLC retention; format: physicochemical; settings: chromatographic, RP-18 (C18) column, gradient 5–100% AcN in 30 min, 0.08% TFA, 214 nm
Description: Figure 8 HPLC analysis of peptide (KG)5-MOG35–55 (214 nm) and oxidized mannan–(KG)5-MOG35–55. HPLC analysis of (A) (KG)5-MOG35–55 and (B) oxidized mannan–(KG)5-MOG35–55 solution after 3 years (214 nm) showing the stability of the conjugate. […] The oxidized mannan–(KG)5-MOG35–55 conjugate was very polar, and it appeared at an earlier retention time compared to the less polar (KG)5-MOG35–55 peptide. The HPLC method used: gradient 5–100% AcN in 30 min.

endo-proteinase Glu-C V8 = endo-proteinase Glu-C V8 (Staphylococcus aureus, UniProt P0C1U8); settings: 100 mM Tris-HCl pH 7.8 (carbonate buffer in Figure 6); 0.5 mg/mL; read-out HPLC (fragment MOG37–55 at 13.55 min), MS and UPLC-MS/MS
Sequence of endo-proteinase Glu-C V8 (P0C1U8 69-336): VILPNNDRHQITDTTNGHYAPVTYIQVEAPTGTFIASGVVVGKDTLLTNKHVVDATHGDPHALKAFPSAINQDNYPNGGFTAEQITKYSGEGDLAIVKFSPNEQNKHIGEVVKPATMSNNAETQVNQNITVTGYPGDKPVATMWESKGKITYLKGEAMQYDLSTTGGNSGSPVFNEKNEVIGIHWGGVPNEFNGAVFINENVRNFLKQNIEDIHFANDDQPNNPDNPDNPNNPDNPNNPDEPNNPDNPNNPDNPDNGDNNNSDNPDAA
Description: This cleavage experiment aimed to identify fragment MOG37–55 by HPLC analysis. […] In particular, endo-proteinase Glu-C V8, a proteolytic serine, sequencing grade from Staphylococcus aureus V8, (Roche, lot no. 32228800) was used. This enzyme acts at the carboxylic acid of the Glu amino acid. […] The same experiment of enzymatic hydrolysis with a glutamate enzyme was also carried out with oxidized mannan–(KG)5-MOG35–55 conjugate.

[3] = old lab batches kept at 5 ± 3 °C since 2014; HPLC (data not shown)
Description: We used a Waters 2695 HPLC (Alliance) system using a photodiode array detector. A Lichrosorb RP-18 reversed-phase analytical column (C18 […], 4.6 × 50 mm PIN 186003034). […] The reaction of oxidized mannan with a (KG)5-MOG35–55 peptide was monitored by HPLC. […] The samples were kept for 3 years and assessed by HPLC for stability.
The stability of the oxidized mannan–(KG)5-MOG35–55 conjugate was analyzed after 3 years of storage.

[4] = tested on: endo-proteinase Glu-C V8, sequencing grade from Staphylococcus aureus V8; experiment: endo-proteinase Glu-C V8 in 100 mM Tris-HCL, pH 7.8
adenocarcinoma patients = settings: cited from earlier work
Excerpt: We have shown that mannan, a poly-mannose carbohydrate isolated from the cell wall of yeast when conjugated to cancer proteins, induces Th1 or Th2 immune responses depending on the mode of conjugation and has therapeutic benefits against cancer when conjugated to peptides, proteins, and DNA. […] In addition, mannan has the added advantage, as it stimulates dendritic cells via Toll-like receptor 4. In MS, mannan conjugated to linear o ...

[5] = tested on: patients with secondary progressive MS; settings: cited from earlier work
Description: The study was performed for the first time using a peptide epitope on patients with secondary progressive MS (MAESTRO-01 study).

[6] = another study, wording is the title of ref 20
[7] = compared to EAE controls, 19 (wording matches ref 30)

In the case of “oxidized mannan–(KG)5-MOG35–55: MOG35–55 peptide conjugated to oxidized mannan via the (KG)5 linker at its N-terminus (KGKGKGKGKGMEVGWYRSPFSRVVHLYRNGK; also: conjugated to oxidized mannan via Schiff base on linker lysine side chains; UniProt Q61885 63-83, looked up, fragment)”, the “Activation levels of CD4 T cells” value (CD4 T cells; co-cultures with tolerogenic DCs presenting the conjugate, PBMCs from RR-MS patients and healthy controls) is given as “Inhibition of activation”, the T-cell tolerance (CD4 T cells; tolerogenic DCs loaded with the conjugate, generated in vitro) is given as “induce T-cell tolerance” and the “Development of neurological symptoms and inflammatory demyelinating spinal cord lesions” value ([1]; EAE models, peptide conjugated to oxidized mannan via (KG)5, earlier study, no reference given) is given as “inhibit”. For the same substance, the “Axons in spinal cord lesions” value [1, 6] was “preserved”, the CNS inflammation [1, 6] was “reduced” and the “Effect on experimental autoimmune encephalomyelitis” value [1, 6] was “reversed”. The Peripheral myeloid response [1, 6] was “inducing a peripheral type 2 myeloid response”, the “Antigen-specific T-cell proliferation” value [1, 7] was “reduced” and the “Th1, Th17, and regulatory T-cell differentiation or T-cell apoptosis” value [1, 7] was “no alterations”. The “Protection in EAE” value ([1]; therapeutic and prophylactic models, 19 (no reference at the sentence; wording matches ref 30)) was “showed protection”, the “Polarity from HPLC retention time” value [2] was “very polar” and the “Cleavage by endo-proteinase Glu-C” value (endo-proteinase Glu-C V8) was “cleavage of peptide sequence between amino acids Glu(36) and Val(37)”. For the same substance, the “Stability of the conjugate: fragmentation or detachment” value [3] was “did not show any signs of fragmentation or detachment”.
In the case of KGKGKGKGKGMEVGWYRPPFSRVVHLYRNGK, the cleaved bond [4] was “Glu36-Val37”.
For “mannan conjugated to MUC1 protein: mannan conjugated to MUC1 cancer protein, tested in humans”, the Clinical responses (adenocarcinoma patients; adenocarcinoma patients) is given as “clinical responses”, the Cancer recurrence (adenocarcinoma patients; in humans) is given as “protection against cancer recurrence” and the Immune responses (adenocarcinoma patients; in humans) is given as “induces immune responses”.
For “(KG)5-MOG35–55: peptide MOG35–55 synthesized with (KG)5 at its N-terminus (MEVGWYRSPFSRVVHLYRNGK; N-terminal (KG)5 linker; UniProt Q61885 63-83, looked up, fragment)”, the “Polarity from HPLC retention time” value [2] was “less polar” and the “Cleavage by endo-proteinase Glu-C” value (endo-proteinase Glu-C V8) was “cleavage of the peptide”.
For “MBP82–98: myelin basic protein epitope peptide clinically tested in phases I, II and III (PADPGSRPHLIRLFSRD; dirucotide; UniProt P02686 82-98, looked up, fragment)”, the “Safety in clinical trials” value ([5]; phases I, II and III) is listed as “safe” and the “Efficacy in clinical trial” value ([5]; secondary progressive MS, MAESTRO-01 study, trial suspended) is listed as “lack of efficacy”.
